Data set [1] deals with rat bladder (K^+ -induced contractions). As to the kind of experiment: Inhibition of K^+ -induced rat bladder contractions. As to conditions: 0.5 h, KCl 80 mM, 30 min after drug, isolated rat bladder. More on the design: species or system rat (male Sprague Dawley). As to the method:
Female Albino Swiss mice [Crl: CD-1 (ICR) BR] with a body weight of 20-30 g and male Sprague Dawley rats [Crl: CD° BR] with a body weight of 200-300 g, from the Charles River Farm, Italy, were used for the trials. The animals were housed with free access to food and water and kept on a forced light-darkness cycle at 22°-24° C. until the day of the trials. Male rats were killed by a blow on their heads and their lower abdomens were opened along the midlines. Their urinary bladders were removed by a transverse dissection above the trigone and cut into two fragments (20-30 mm long, 1-2 mm wide). Each fragment was suspended in an isolated organ bath containing 10 ml of a normal Tyrode solution (composition in mM: NaCl 137, KCl 2.68, MgCl2 1.11, CaCl2 1.8, NaH2 PO4 0.41, NaHCO3 11.9, glucose 5.55) and connected, under a steady 1 g load, to an isometric transducer (DY-1, Basile). The solution was gassed with a mixture of 95% O2 and 5% CO2 and heated at 37° C. After a 60 minute equilibration the tension responses to a single KCl dose (Bath concentration=80 mM) inducing phasic and tonic contractions were measured under isometric conditions at 30 minute intervals. After recording one or more reproducible responses, a solution of the test drug was added to the bath (final concentration from 10^-4 to 10^-9 M) and 30 minutes later a new contraction was induced. The experimental groups were made up of at least 2 preparations from different animals for each drug concentration tested. The IC50 values of the inhibition of the agonist-induced contractions were evaluated by linear regression analysis.

Data set [2] is described as follows: Acute toxicity in mice (LD50). Type of data set: in vivo. As to conditions: mouse, in vivo, mice, death rate 7 days after administration. As to the method: (§1) Female Albino Swiss mice [Crl: CD-1 (ICR) BR] with a body weight of 20-30 g and male Sprague Dawley rats [Crl: CD° BR] with a body weight of 200-300 g, from the Charles River Farm, Italy, were used for the trials. The animals were housed with free access to food and water and kept on a forced light-darkness cycle at 22°-24° C. until the day of the trials.
(§2) The acute toxicity was evaluated in female Albino Swiss mice after intraperitoneal or oral administrations. Four logarithmic scaled doses of the compounds were dissolved or suspended in 0.5% aqueous Methocel and administered at a volume of 10 ml/kg to groups of 4 mice/dose. The death rate was recorded 7 days after the administration.
(§3) The LD50 values and the relevant confidence limits were calculated according to the method of Weil (Biometrics, 8, 249, 1952).

In data set [3] the test system is Female Albino Swiss mice. As to the kind of experiment: Acute toxicity in mice (LD50). As to conditions: in words; LD50/IC50 compared with Flavoxate. The data set is classed as in vivo. The protocol: as §1, §2, §3
The conditions of data set [4]: in words, background; cited from earlier work.
For data set [5] the following is noted: in words, background; cited from earlier work. The source holds these as a separate data set.
Setting [6] is: phasic contraction, read-out: IC50, inhibition of K^+ -induced rat bladder contractions, Phasic.
[7] abbreviates: tonic contraction, read-out: IC50, inhibition of K^+ -induced rat bladder contractions, Tonic.

Where two headings read alike, the source gives them in different places.

The term IC50 denotes the concentration needed to halve the response being measured. Broadly, the LD50 is the dose at which mortality reaches 50%. As for `COc1ccc(C(C#N)(CCCN(C)CCN(C)C(=O)c2cccc3c(=O)c(C)c(-c4ccccc4)oc23)C(C)C)cc1OC.Cl.O` (stereo not drawn) [Example 14, 8-{2-[4-Cyano-4-(3,4-dimethoxyphenyl)-N,5-dimethylhexylamino]-N-methylethylcarbamoyl}-3-methyl-4-oxo-2-phenyl-4H-1-benzopyran hydrochloride hydrate], the IC50 in data set [1] (setting [6]) and in data set [1] (setting [7]) was 0.1 µM in each case. Further, the LD50 at 168 h in data set [2] (ip, i.p., read-out: Mice LD50 i.p.) was 159 mg/kg; in data set [2] (po, p.o., read-out: Mice LD50 p.o.), 346 mg/kg. The “relative therapeutic index (LD50/IC50) versus Flavoxate” value in data set [3] is on record as “considerably safer than Flavoxate”.
In the case of `Cc1c(-c2ccccc2)oc2c(C(=O)OCCN3CCCCC3)cccc2c1=O` [Flavoxate, 8-(2-(N-piperidino)ethoxycarbonyl)-3-methyl-4-oxo-2-phenyl-4H-1-benzopyran, reference compound], the anticholinergic effects entry in data set [4] is on record as “practical absence of anticholinergic effects”. For the same molecule, the IC50 in data set [1] (setting [6]) and in data set [1] (setting [7]) was 13 µM throughout. Also, the “stability in physiological fluids” value in data set [5] was “low stability in physiological fluids”.

The values above are taken from patent US5453518A, “Flavone derivatives” (Recordati S.A., Chemical and Pharmaceutical Company, priority 1992, dated 1995).
